Like-named read-outs stand apart in the source and are kept apart here.
How the values were obtained:
[1] = system: Rabbit Psoas myofibrils (skeletal myosin ATPase); experiment: Myofibril ATPase assay, rabbit psoas (skeletal) myofibrils; assay type: biochemical; conditions: Y75 value (no ‡ mark); rabbit psoas myofibrils
Method in brief: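 Values are concentrations giving 75% (Y75) or 125% (Y125) of vehicle ATPase activity, from 4-parameter logistic fits of normalized rates. Rates came from linear regression of A340 over 75 min, NADH oxidation coupled to ADP via PK-LDH. Enzyme source: skeletal myofibrils from rabbit psoas, pH 7.0 pCa buffer.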

[2] = system: Porcine atria myofibrils (atrial myosin ATPase); experiment: Myofibril ATPase assay, porcine atria myofibrils; assay type: biochemical; conditions: Y75 value (no ‡ mark); porcine atria myofibrils
Method in brief: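 Y75 (25% inhibition) or Y125 (activation) values come from 4-parameter logistic fits of vehicle-normalized rates. Rates are linear-regression slopes of NADH absorbance at 340 nm, read kinetically over 75 min, with ADP coupled to NADH oxidation via pyruvate kinase/lactate dehydrogenase.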

[3] = target: T1, Porcine ventricle myofibrils (ventricular myosin ATPase) (Sus scrofa, UniProt P79293); experiment: Myofibril ATPase assay, porcine ventricle myofibrils; assay type: biochemical, porcine (Yucatan minipigs); conditions: Y75 value (no ‡ mark); porcine ventricle myofibrils
T1 construct: Myofibrils from porcine cardiac muscle was isolated from the left ventricle of Yucatan minipigs; tissue Exemplar Genetics; host or cells: left ventricle of Yucatan minipigs, myofibrils prepared in house
Method in brief: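 Myofibrils isolated from Yucatan minipig left ventricle; coupled PK/LDH NADH assay, pCa buffer pH 7.0, kinetic A340 reads over 75 min. Vehicle-normalized slopes fit 4PL; Y75/Y125 derived.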

[4] = system: SD rats; experiment: Echocardiography of systolic cardiac performance (HR, FS, LV volumes, SWT) after a single oral dose; assay type: in vivo; conditions: Rattus norvegicus, single dose 10 mg/kg PO, ~2 hrs post-dosing, isoflurane-anesthetized
Procedure: Example 2. Echocardiogram Data
Experiments were performed to evaluate the in vivo ability of the compounds of the disclosure to modulate systolic cardiac performance. Non-invasively echocardiography was used to assess cardiac indicators in isoflurane-anesthetized SD rats. A set of conscious rats were treated with either vehicle control (0 mg/kg PO; n=78) or a single dose of a test compound (10 mg/kg PO, n=2 to 6/compound) via oral gavage. Cardiac function/geometry were recorded at two separate time-points/days: once prior to dosing (e.g., at baseline, day −2) and at ˜2 hrs post-dosing (day 0). In these experiments, heart rate (HR), echocardiography-derived indices of left-ventricular systolic performance, as well as dimensions/volumes were measured using a high-frequency transducer and parasternal long-axis transthoracic views (Vevo3100, VisualSonic). LV fractional shortening (FS), an index of systolic function, was defined as the end-diastole normalized change in internal dimensions divided by the difference in diameter (LVid) of the left ventricle between end-systole (LVids) and end-diastole (LVidd) (e.g., FS=100·[LVidd−LVids]/LVidd). LV volumes were derived using the Teichholz formula (LVV=[7·LVid^3]/[2.4+LVid]). In addition, a systolic wall-thickening index (SWT) was also evaluated. SWT is defined as the relative ratio (end-diastole normalized) of left-ventricular (anterior and posterior) wall-thickness change during systole; e.g., SWT={[(anterior LV wall thickness in systole−anterior LV wall thickness in diastole)]+[(posterior LV wall thickness in systole−posterior LV wall thickness in diastole)]}/{2*diastolic thickness}. In all cases, blood samples were taken (via either tail-vein micro-sampling or cardiac-puncture) at the time of each echocardiographic examination in order to establish pharmacokinetic (PK)/pharmacodynamics (PD) relationships.

T1 sequence (P79293 whole entry): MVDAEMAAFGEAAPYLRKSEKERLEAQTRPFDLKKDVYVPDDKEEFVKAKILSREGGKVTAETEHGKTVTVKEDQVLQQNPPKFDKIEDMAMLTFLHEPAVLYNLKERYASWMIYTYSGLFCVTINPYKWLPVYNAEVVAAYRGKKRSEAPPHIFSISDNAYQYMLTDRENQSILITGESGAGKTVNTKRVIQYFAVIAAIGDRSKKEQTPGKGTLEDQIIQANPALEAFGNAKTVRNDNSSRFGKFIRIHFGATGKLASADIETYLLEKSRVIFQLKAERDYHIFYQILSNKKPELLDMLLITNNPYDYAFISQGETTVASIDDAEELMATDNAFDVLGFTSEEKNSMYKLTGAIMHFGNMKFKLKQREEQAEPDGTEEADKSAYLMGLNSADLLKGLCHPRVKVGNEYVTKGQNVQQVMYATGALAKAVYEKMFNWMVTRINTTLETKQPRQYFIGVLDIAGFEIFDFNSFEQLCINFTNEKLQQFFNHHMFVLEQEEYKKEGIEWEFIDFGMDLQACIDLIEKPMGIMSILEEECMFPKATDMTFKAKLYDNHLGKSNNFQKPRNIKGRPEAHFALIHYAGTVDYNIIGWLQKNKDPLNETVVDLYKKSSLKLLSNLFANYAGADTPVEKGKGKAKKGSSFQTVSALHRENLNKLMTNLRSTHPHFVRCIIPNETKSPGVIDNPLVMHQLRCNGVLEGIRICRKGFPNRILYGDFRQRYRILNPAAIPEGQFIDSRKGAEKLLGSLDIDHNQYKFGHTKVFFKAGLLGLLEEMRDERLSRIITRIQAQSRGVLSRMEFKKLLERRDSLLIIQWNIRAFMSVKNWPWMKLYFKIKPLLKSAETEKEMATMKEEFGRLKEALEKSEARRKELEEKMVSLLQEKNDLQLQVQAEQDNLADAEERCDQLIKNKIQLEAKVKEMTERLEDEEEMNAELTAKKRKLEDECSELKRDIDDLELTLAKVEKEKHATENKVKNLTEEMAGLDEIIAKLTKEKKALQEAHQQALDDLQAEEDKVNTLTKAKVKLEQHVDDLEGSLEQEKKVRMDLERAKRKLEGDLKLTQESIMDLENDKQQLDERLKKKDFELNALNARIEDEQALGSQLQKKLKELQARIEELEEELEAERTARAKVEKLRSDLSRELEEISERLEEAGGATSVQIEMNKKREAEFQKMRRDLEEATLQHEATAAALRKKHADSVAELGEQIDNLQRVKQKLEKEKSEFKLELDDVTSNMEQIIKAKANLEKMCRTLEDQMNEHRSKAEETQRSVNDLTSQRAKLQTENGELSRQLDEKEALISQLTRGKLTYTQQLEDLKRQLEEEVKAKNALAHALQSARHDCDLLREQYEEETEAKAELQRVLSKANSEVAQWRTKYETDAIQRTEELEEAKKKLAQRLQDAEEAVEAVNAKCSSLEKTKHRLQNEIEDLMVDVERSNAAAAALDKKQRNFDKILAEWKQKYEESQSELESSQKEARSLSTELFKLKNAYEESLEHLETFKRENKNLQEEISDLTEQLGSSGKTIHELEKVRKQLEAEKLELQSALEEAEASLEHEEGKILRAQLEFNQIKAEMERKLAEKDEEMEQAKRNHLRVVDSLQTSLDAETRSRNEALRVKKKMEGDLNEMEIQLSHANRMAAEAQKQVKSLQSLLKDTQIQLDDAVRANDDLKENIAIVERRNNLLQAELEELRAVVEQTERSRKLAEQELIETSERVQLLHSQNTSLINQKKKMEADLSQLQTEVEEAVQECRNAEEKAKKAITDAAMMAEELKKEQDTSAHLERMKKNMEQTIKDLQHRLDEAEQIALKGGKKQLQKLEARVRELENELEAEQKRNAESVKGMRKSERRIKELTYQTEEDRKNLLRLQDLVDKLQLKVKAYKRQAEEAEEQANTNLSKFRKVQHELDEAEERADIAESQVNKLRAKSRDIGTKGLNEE

Skeletal EC25 [1]: 210 nM
Atrial EC25 [2]: 140 nM
Ventricular EC25 [3]: 190 nM
SMILES: Cc1c(CC(=O)N[C@@H](C)c2cnc(C#N)cn2)c(=O)[nH]c2ccc(F)c(F)c12 [compound 1146, (S)—N-(1-(5-cyanopyrazin-2-yl)ethyl)-2-(5,6-difluoro-4-methyl-2-oxo-1,2-dihydroquinolin-3-yl)acetamide]
change in vivo at 10 mg/kg ([4]; EDV change vs vehicle, read-out: EDV % vs. VEH): 1 to 20%
change in vivo at 10 mg/kg ([4]; LV fractional shortening change vs vehicle, read-out: FS % vs. VEH): 21 to 40%
change in vivo at 10 mg/kg ([4]; SWT change vs vehicle, read-out: SWT % vs. VEH): 21 to 40%
change in vivo at 10 mg/kg ([4]; heart rate change vs vehicle, read-out: HR % vs. VEH): 1 to 10%
